Assay results: US10265321B2, “Uses of salt-inducible kinase (SIK) inhibitors” (Dana-Farber Cancer Institute, Inc., priority 2014, dated 2019)

How the values were obtained:
BMDCs = test: Cytokine (cytometric bead array) and NO (Greiss) production by stimulated BMDCs; format: cell-based, mouse
Experimental: Bone marrow-derived DCs were differentiated from C57BL/6 bone marrow in the presence of GM-CSF-conditioned media. CD11c^+ CX3CR1^hi myeloid cells and CD11c^+ CX3CR1^− DCs were isolated from the small intestine lamina propria of Cx3cr1^eGFP/+ mice (12). Detection of cell-surface Thy1.1 expression on BMDCs from 10BiT reporter mice was conducted as described previously (24). Cell viability was estimated by change in total cellular ATP levels using CellTiterGlo assays (Promega). Preparation of recombinant SIK proteins and IC50 measurements were conducted as described previously (21). Total RNA was extracted using a NucleoSpin 96 RNA isolation kit (Macherey-Nagel) followed by cDNA synthesis and multiplex RT-PCR using a microfluidic dynamic array (Fluidigm). The concentrations of TNF-α, IL-6, IL-10, IL-12p40, IL-1β and RANTES in culture supernatants were detected using a FlexSet Cytometric bead array (BD Biosciences). Alternatively, IL-10 secretion was quantified using ELISA (BD Biosciences) or AlphaLISA (PerkinElmer) assays. NO production was estimated based on nitrate content in culture medium using the Greiss reagent.
C57BL/6 mice were euthanized and bone marrow harvested from femurs and tibias as described previously (Graham D B, et al. (2007) An ITAM-signaling pathway controls cross-presentation of particulate but not soluble antigens in dendritic cells. The Journal of experimental medicine 204(12):2889-2897). BMDCs were differentiated DMEM supplemented with 2 mM GlutaMAX, 10% (vol/vol) FBS, penicillin, streptomycin and 2% mouse GM-CSF conditioned media derived from TOPO cells. Cultures were differentiated for 7 days and routinely analyzed for >90% CD11c (APC anti-CD11c clone HL3; BD Biosciences) positivity by flow cytometry before use in experiments. Lentiviral transduction of bone marrow cultures was conducted by addition of 293T culture supernatants containing lentiviral particles encoding the CREB dependent luciferase reporter construct or CRTC3 targeting or control shRNAs one day post-isolation. Stable integration of lentiviral shRNA constructs was selected by addition of puromycin (3 μg/mL) on day 4 post-transduction. After 2 days, stably transduced BMDCs were released from selection and used in subsequent assays. Unless otherwise indicated, cells were treated for 2 days with PGE2 (5 μM) or HG-9-91-01 (0.5 μM) or an equivalent concentration of DMSO (≤0.5%) and then stimulated for 18 hr with LPS (100 ng/mL), R848 (10 μg/mL) or zymosan (4 μg/mL).
After stimulation of cells with microbial ligands, the culture medium was removed, clarified by centrifugation for 10 min at 14,000×g, and the concentration of TNF-α, IL-6, IL-10, IL-12p40, IL-1β and RANTES were measured using FlexSet Cytokine Bead Array (BD Biosciences) according to the manufacturer's instructions. Where indicated, ELISAs were used to detect IL-10 and IL-12p70 (BD Biosciences) according to the manufacturer's instructions. NO production was estimated based on nitrate content in culture medium using the Greiss reagent as described previously (Miletic A V, et al. (2007) Vav proteins control MyD88-dependent oxidative burst. Blood 109(8):3360-3368).

Src = Src (Homo sapiens, UniProt P12931); details: cited from earlier work
[1] = tested on: naïve splenic CD4+ T cells differentiated to Treg or Tr1; test: Treg and Tr1 T cell differentiation, viability, FoxP3 staining and IL-10 ELISA; format: cell-based, mouse
Experimental: Balb/c mice were euthanized and splenic CD4+CD62L+ T cells were magnetically enriched (Miltenyi Biotec) to >95% purity and cultured in DMEM media on plates pre-coated with anti-CD3 and anti-CD28 antibodies (clones 145-2C11 and 37.51; BioXCell). Culture media was supplemented with 10 μg/mL anti-IL-4 (clone 11B11; BioXCell), anti-IL-12 (clone C17.8; BioXCell), and anti-IFNγ (clone XMG1.2; BioXCell) as well as TGFβ (2 ng/mL; PeproTech). HG-9-91-01 (100 nM) or DMSO were added at day 0. Cultures were fed with DMEM+IL-2 (10 ng/mL, Peprotech) containing small molecules at day 2 and analyzed at day 4. Cells were stained with blue LIVE/DEADAqua stain (Invitrogen) to discriminate live cells, fixed with Foxp3 Permeabilization Buffer (eBioscience), stained with FITC anti-CD4 (clone RM4-5, Biolegend) and PE anti-Foxp3 (clone FJK-16S, eBioscience) and acquired on a FACSVerse (BD Biosciences). For Th0 and Tr1 differentiations, C57BL/6 mice were euthanized and splenic CD4+CD62L+ T cells were magnetically enriched (Miltenyi Biotec) to >95% purity and cultured in DMEM media on plates pre-coated with anti-CD3 and anti-CD28 antibodies (clones 145-2C11 and 37.51; BioXCell) in the absence of neutralizing antibodies. For Tr1 differentiations, the culture media was supplement with TGFβ (2 ng/mL; PeproTech) and rIL-27 (25 ng/mL; R&D Systems) as described previously (Gagliani N, et al. (2013) Coexpression of CD49b and LAG-3 identifies human and mouse T regulatory type 1 cells. Nature medicine 19(6):739-746). After 4 days, cells were harvested, washed in PBS and stained with LIVE/DEADGreen to discriminate viable cells and eFluor450 anti-CD4 (BioLegend) and acquired on a FACSVerse (BD Biosciences). Absolute cell numbers were enumerated by adding 5000 […] beads (Spherotech) to each well. Analysis was performed using Flowjo (Treestar) excluding samples were significant toxicity was observed. For all differentiation conditions, IL-10 levels were quantified in the culture media at day 4 by ELISA (BD Biosciences).

SGK = test: Protein kinase assay against SGK (selectivity); format: biochemical; details: DMSO set to 100%

Sequence of Src (P12931 whole entry, species assumed): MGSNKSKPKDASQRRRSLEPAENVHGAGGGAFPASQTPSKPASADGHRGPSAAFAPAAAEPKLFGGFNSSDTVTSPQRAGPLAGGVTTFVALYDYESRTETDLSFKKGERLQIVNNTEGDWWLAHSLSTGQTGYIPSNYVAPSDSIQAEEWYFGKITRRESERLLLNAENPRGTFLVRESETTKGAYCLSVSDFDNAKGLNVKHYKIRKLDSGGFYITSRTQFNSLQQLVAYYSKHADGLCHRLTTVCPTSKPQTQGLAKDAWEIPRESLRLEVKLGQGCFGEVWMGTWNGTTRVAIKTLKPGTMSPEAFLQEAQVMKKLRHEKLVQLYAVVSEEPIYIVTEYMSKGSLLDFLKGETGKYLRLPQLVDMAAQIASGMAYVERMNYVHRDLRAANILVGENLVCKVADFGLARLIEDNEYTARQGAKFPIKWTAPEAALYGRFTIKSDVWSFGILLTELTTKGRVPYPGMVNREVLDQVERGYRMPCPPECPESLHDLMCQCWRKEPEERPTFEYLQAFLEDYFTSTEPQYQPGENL

Row | Activity of protein kinase treated with 0.1 μM of I-1 (% control (DMSO)) SGK (SGK; 0.1 μM) | Activity of protein kinase treated with 1 μM of I-1 (% control (DMSO)) SGK (SGK; 1 μM) | Structure (SMILES) | IL-10 secretion (BMDCs; BMDCs pre-treated, LPS, R848 or zymosan 18 hr) | IL-1β production (BMDCs; BMDCs, stimulation with R848 or zymosan) | production of IL-12p40 and TNF-α (BMDCs; BMDCs, versus PGE2, regardless of activating stimuli) | Src activity remaining (Src) | fraction of Foxp3+ cells and IL-10 secretion of Treg's ([1]; 100 nM, 4 days) | concentrations toxic in Treg's and Tr1 cells ([1]; 4 days differentiation) | IL-10 secretion by Tr1 cells ([1]; non-toxic concentrations, 4 days)
1 | – | – | COc1ccc(N(C(=O)Nc2c(C)cccc2C)c2cc(Nc3ccc(N4CCN(C)CC4)cc3)ncn2)c(OC)c1 [HG-9-91-01] | similarly induced | suppressed | suppressed to a significantly greater extent | less than 4% | did not increase the fraction of Foxp3^+ cells or promote IL-10 secretion | greater than 0.5 μM | not further enhanced
2 | 96 % control (DMSO) | 100 % control (DMSO) | Cc1cccc(C)c1NC(=O)N1C/C=C\COc2cccc(c2)Nc2cc1ncn2 [I-1] | – | – | – | – | – | – | –
